Test results as given in paper PMC10301333, “The C-Terminus of Panusin, a Lobster β-Defensin, Is Crucial for Optimal Antimicrobial Activity and Serum Stability” (Pharmaceutics, 2023).
≈ marks a conversion by molar mass, not a printed value. Like-named read-outs stand apart in the source and are kept apart here. Bridge positions count the residues as written; N and C are the ends. Peptide text beside a SMILES is read from it.

Columns and labels:
horse red blood cells = assay: Hemolytic activity (hemoglobin release)
Experimental: Both peptides were tested for hemolytic activity on horse red blood cells (RBCs), as described earlier. Briefly, fresh RBCs in PBS (pH 7.4) were first centrifuged 3 × 1500× g for 5 min, then diluted 1:10 with PBS to yield an RBC concentration of ~5 × 10^8 cells/mL. RBCs were then incubated for 1 h at 37 °C with 2-fold serial dilutions of PaD or Ct_PaD covering a 0.24–250 μM concentration range. Next, 0.1% TritonX100 and PBS were used as positive and negative controls, respectively. After incubation, samples were centrifuged at 1500× g for 10 min at room temperature and the supernatant (60 μL) was transferred to a flat-bottomed 96-well polypropylene microplate (Greiner, Frickenhausen, Germany). Hemoglobin release was then measured as OD at 540 nm in a VICTOR3 microplate reader (Perkin Elmer, Waltham, MA, USA). Percent hemolysis was calculated as indicated below (Equation (1)).

MTT cytotoxicity assay = type: cell-based; details: human
Experimental: MRC-5 cells were cultured in Eagle’s minimum essential medium (MEMα), supplemented with 10% (v/v) fetal bovine serum (FBS) and a 1% penicillin (100 IU/mL)/streptomycin (100 μg/mL) solution, and maintained at 37 °C in a humidified atmosphere with 5% CO2. After cells were grown, they were seeded into 96-well plates at 3 × 10^4 cells/well and cultured overnight to adhere to the plate. Subsequently, adherent cells were incubated for 4 h under standard conditions (5% CO2, 37 °C) with 2-fold serial dilutions of each peptide in a 1.56–200 μM concentration range. Following incubation, the peptide-containing medium was replaced with MEM supplemented with FBS and 3-(4,5-dimethylthiazol-2-yl)-2,5 diphenyltetrazolium bromide (MTT) at 0.4 mg/mL, and the cells were further incubated for 120 min. Formazan crystals in live cells were detected after disruption with 200 μL of DMSO by OD measurement at 570 nm in a Tecan microplate reader. […] Data are the average of three independent replicates.

[1] = Analytical RP-HPLC retention time as measure of hydrophobic character; type: physicochemical; details: chromatographic, Luna C18 4.6 × 50 mm, 3 µm; 10 to 50 linear gradient of MeCN (0.036% TFA) into H2O (0.045% TFA) over 15 min, 1 mL/min, UV 220 nm; used as indicator of hydrophobic character
Experimental: Analytical RP-HPLC was performed on an LC-2010 instrument (Shimadzu, Kyoto, Japan) using a Luna C18 column (4.6 × 50 mm, 3 µm; Phenomenex, Torrance, CA, USA), eluted with linear gradients of solvent B (0.036% TFA in MeCN) into solvent A (0.045% TFA in H2O) over 15 min at a 1 mL/min flow rate, with UV detection at 220 nm.
The HPLC retention times of PaD and Ct_PaD reflect some differences in hydrophobic character. […] Such differences in hydrophobicity might influence both antimicrobial and cytotoxic activity, which were therefore assessed next.
Supplementary Materials: The C-terminus of Panusin, a Lobster β-defensin, Is Crucial for Optimal Antimicrobial
Activity and Serum Stability
Roberto Bello-Madruga, Javier Valle, M. Ángeles Jiménez, Marc Torrent, Vivian Montero-Alejoand David Andreu
1. Synthetic Peptide Characterization
Table S1. Peptide Analytical Data.
1 Theoretical Experimental HPLC Retention Purity
Peptide Mass (Da) Mass (Da)2 Time (min)3 (HPLC, %)4
1 All peptides are C-terminal carboxamides; 2 Determined by LC-MS, 3 Elution was carried out with a 10 to 50 linear gradient over 15 min; 4 Determined by analytical HPLC.
Figure S1. RP-HPLC elution profile of purified peptides. […]

Acinetobacter baumannii = details: for MBC: 24 h
Experimental: (§1) Antimicrobial activities of both PaD and Ct_PaD were determined in a modified microdilution assay as described previously for other β-defensins such as peptides. The assay was performed in sterile polypropylene 96-well plates that prevent peptide binding (Greiner, Frickenhausen, Germany). From a bacterial isolate, a single colony was seeded in Mueller Hinton Broth (MHB, Condalab, Torrejón de Ardoz, Spain) and allowed to grow at 37 °C in an incubator with orbital shaking at 250 rpm overnight. Subsequently, a new bacterial culture was seeded from the overnight culture and allowed to grow to an OD of 0.5 at 600 nm. The bacterial suspension was diluted to a final concentration of 5 × 10^5 CFU (colony formation unit)/mL in sterile 10 mM phosphate buffer (PB: 2.46 mM NaH2PO4, 7.5 mM Na2HPO4, pH 7.4), used as the working culture. Next, 50 μL of 2-fold serial dilutions of each peptide in PB were placed on the plates to provide a final 0.097–100 µM concentration range after which 50 μL of working culture was applied to each well. The plate was first incubated for 2 h at 37 °C, then 100 μL of MHB 2× was added to each well and was incubated at 37 °C overnight with shaking. The growth of bacteria was measured by the optical density at 600 nm in a microplate reader (Tecan, Männedorf, Switzerland). The minimum inhibitory concentration (MIC) was defined as the minimum peptide concentration in which the microorganism is unable to grow. The results are the average of three independent studies. […] MBC was defined for each peptide as the lowest concentration with no bacterial growth detected.

Enterococcus faecium = details: for MBC: 24 h
Experimental: as §1

Escherichia coli = details: for MBC: 24 h
Experimental: as §1

Micrococcus luteus = details: for MBC: 24 h
Experimental: as §1

Pseudomonas aeruginosa = details: for MBC: 24 h
Experimental: as §1

Staphylococcus aureus = details: for MBC: 24 h
Experimental: as §1

human erythrocytes = details: natural panusin; cited from earlier work
Excerpt: Panusin, isolated from hemocytes of the spiny lobster Panulirus argus (PaD), is representative of those invertebrate peptides, which are related to mammalian β-defensins. PaD is comprised of 39 amino acid residues that fold into a well-described cysteine-stabilized αβ (CSαβ) motif, consisting of an α-helix and three antiparallel […]. These […] are strongly stabilized by three disulfide bonds. […] These properties mark it a ...

in vitro = details: human, human serum (50% v/v in water), t1/2 values, proteolysis in human serum, 37 °C, 24 h incubation
Experimental: Peptide samples (500 μL, 500 μM in H2O) were mixed and incubated with 500 μL of human serum (Sigma-Aldrich, St. Louis, MO, USA) for 24 h at 37 °C. Aliquots (120 μL) were taken at 0, 30, 120, 360, 720, and 1440 min and treated with 20 μL of trichloroacetic acid (15% (v/v) in H2O). The suspension was centrifuged for 30 min at 13,000 rpm, 4 °C, and the supernatant was analyzed by RP-HPLC as described above. The unaltered peptide was determined by RP-HPLC peak integration, expressed as the percent of the amount at t0, and data were fitted to a one-phase exponential decay model using GraphPad Prism 8.01 to estimate half-life time (t1/2). Results are the average of three independent runs.

For `CC(C)C[C@@H]1NC(=O)[C@H](CCCNC(=N)N)NC(=O)[C@H](CC(N)=O)NC(=O)CNC(=O)[C@H](Cc2ccc(O)cc2)NC(=O)[C@@H]2CCCN2C(=O)[C@@H](NC(=O)[C@@H](N)Cc2ccc(O)cc2)CSSC[C@@H](C(=O)N[C@@H](CCCNC(=N)N)C(=O)N[C@@H](CCCNC(=N)N)C(=O)N[C@@H](CO)C(=O)N[C@@H](Cc2ccc(O)cc2)C(N)=O)NC(=O)[C@@H]2CSSC[C@H](NC(=O)[C@H](Cc3ccccc3)NC(=O)[C@H](Cc3ccc(O)cc3)NC(=O)[C@H](CC(N)=O)NC1=O)C(=O)N1CCC[C@H]1C(=O)N[C@@H](CC(C)C)C(=O)NCC(=O)N[C@@H](CCCNC(=N)N)C(=O)N[C@@H]([C@@H](C)O)C(=O)N2` [Ct_PaD] (H-YCPYGNRLNYFCPLGRTCCRRSY-NH2; disulfide 2-19, 12-18; N-terminus assumed), the “Hemolytic activity (result in words)” value (horse red blood cells; horse red blood cell lysis, tested up to 250 μM, hemoglobin release at 540 nm) was “absence of hemolytic activity”, the IC50 at 4 h (MTT cytotoxicity assay; MRC-5 cells, 4 h peptide incubation, 1.56–200 μM, MTT, OD 570 nm, average of three independent replicates, read-out: MRC-5 cytotoxicity (IC50)) was 175 ± 1.5 µM and the “HPLC Retention Time” value [1] was 6.65 min.

`CC[C@H](C)[C@H](NC(=O)[C@H](CCCCN)NC(=O)[C@H](CCC(=O)O)NC(=O)[C@H](CCCCN)NC(=O)[C@H](CO)NC(=O)[C@H](CCCCN)NC(=O)[C@H](CCCNC(=N)N)NC(=O)[C@H](Cc1ccccc1)NC(=O)[C@H](Cc1ccccc1)NC(=O)[C@H](CC(=O)O)NC(=O)CNC(=O)[C@H](CC(C)C)NC(=O)[C@@H](N)CC(C)C)C(=O)NCC(=O)N[C@@H](CCCCN)C(=O)N[C@@H](CCC(=O)O)C(=O)N[C@@H](Cc1ccccc1)C(=O)N[C@@H](CCCCN)C(=O)N[C@@H](CCCNC(=N)N)C(=O)N[C@H](C(=O)N[C@H](C(=O)N[C@@H](CCC(N)=O)C(=O)N[C@@H](CCCNC(=N)N)C(=O)N[C@H](C(=O)N[C@@H](CCCCN)C(=O)N[C@@H](CC(=O)O)C(=O)N[C@@H](Cc1ccccc1)C(=O)N[C@@H](CC(C)C)C(=O)N[C@@H](CCCNC(=N)N)C(=O)N[C@@H](CC(N)=O)C(=O)N[C@@H](CC(C)C)C(=O)N[C@H](C(=O)N1CCC[C@H]1C(=O)N[C@@H](CCCNC(=N)N)C(=O)N[C@H](C(=O)N[C@@H](CCC(=O)O)C(=O)N[C@@H](CO)C(=O)O)[C@@H](C)O)C(C)C)[C@@H](C)CC)C(C)C)[C@@H](C)CC` [LL-37, reference compound] showed an MIC (Acinetobacter baumannii; A. baumannii ATCC 15308, 10 mM phosphate buffer pH 7.4, 2 h at 37 °C, then MHB overnight, OD 600 nm, average of three independent studies) of 6.3 µM (≈ 28.3 µg/mL), an MBC (Acinetobacter baumannii; A. baumannii ATCC 15308, plated, 37 °C, lowest concentration with no bacterial growth) of 6.3 µM (≈ 28.3 µg/mL) and an MIC (Enterococcus faecium; E. faecium ATCC 19434, 10 mM phosphate buffer pH 7.4, 2 h at 37 °C, then MHB overnight, OD 600 nm, average of three independent studies) of 1.6 µM (≈ 7.19 µg/mL). It also gave an MBC (Enterococcus faecium; E. faecium ATCC 19434, plated, 37 °C, lowest concentration with no bacterial growth) of 3.1 µM (≈ 13.9 µg/mL), an MIC (Escherichia coli; E. coli BW25113, 5 × 10^5 CFU/mL in 10 mM phosphate buffer pH 7.4, 2 h at 37 °C, then MHB overnight, OD 600 nm, average of three independent studies) of 1.6 µM (≈ 7.19 µg/mL) and an MBC (Escherichia coli; E. coli BW25113, 50 μL of wells seeded into Petri plates, 37 °C, lowest concentration with no bacterial growth) of 3.1 µM (≈ 13.9 µg/mL). The MIC (Micrococcus luteus; M. luteus ATCC 15,307, 10 mM phosphate buffer pH 7.4, 2 h at 37 °C, then MHB overnight, OD 600 nm, average of three independent studies) was 1.6 µM (≈ 7.19 µg/mL), the MBC (Micrococcus luteus; M. luteus ATCC 15,307, plated, 37 °C, lowest concentration with no bacterial growth) was 3.1 µM (≈ 13.9 µg/mL) and the MIC (Pseudomonas aeruginosa; P. aeruginosa ATCC 15692, 10 mM phosphate buffer pH 7.4, 2 h at 37 °C, then MHB overnight, OD 600 nm, average of three independent studies) was 1.6 µM (≈ 7.19 µg/mL). The MBC (Pseudomonas aeruginosa; P. aeruginosa ATCC 15692, plated, 37 °C, lowest concentration with no bacterial growth) was 1.6 µM (≈ 7.19 µg/mL), the MIC (Staphylococcus aureus; S. aureus ATCC 12600, 10 mM phosphate buffer pH 7.4, 2 h at 37 °C, then MHB overnight, OD 600 nm, average of three independent studies) was 25 µM (≈ 112 µg/mL) and the MBC (Staphylococcus aureus; S. aureus ATCC 12600, plated, 37 °C, lowest concentration with no bacterial growth) was 25 µM (≈ 112 µg/mL). For the same compound, the “Hemolysis % (250 µM peptide)” value (horse red blood cells; horse RBCs ~5 × 10^8 cells/mL in PBS pH 7.4, 1 h, 37 °C, 250 µM peptide, OD 540 nm, vs 0.1% TritonX100, average of three independent replicates) was 17.5 ± 0.3%.

With `CC(C)C[C@@H]1NC(=O)[C@H](CCCNC(=N)N)NC(=O)[C@H](CC(N)=O)NC(=O)CNC(=O)[C@H](Cc2ccc(O)cc2)NC(=O)[C@@H]2CCCN2C(=O)[C@@H]2CSSC[C@@H](C(=O)N[C@@H](CCCNC(=N)N)C(=O)N[C@@H](CCCNC(=N)N)C(=O)N[C@@H](CO)C(=O)N[C@@H](Cc3ccc(O)cc3)C(N)=O)NC(=O)[C@@H]3CSSC[C@H](NC(=O)[C@H](CC(=O)O)NC(=O)CNC(=O)[C@@H](NC(=O)[C@H](Cc4ccc(O)cc4)NC(=O)[C@@H](N)CO)C(C)C)C(=O)NCC(=O)N[C@@H](CO)C(=O)N[C@@H](CC(N)=O)C(=O)NCC(=O)NCC(=O)N[C@@H](CO)C(=O)N[C@@H](CSSC[C@H](NC(=O)[C@H](Cc4ccccc4)NC(=O)[C@H](Cc4ccc(O)cc4)NC(=O)[C@H](CC(N)=O)NC1=O)C(=O)N1CCC[C@H]1C(=O)N[C@@H](CC(C)C)C(=O)NCC(=O)N[C@@H](CCCNC(=N)N)C(=O)N[C@@H]([C@@H](C)O)C(=O)N3)C(=O)N[C@@H](C(C)C)C(=O)N[C@@H](CO)C(=O)N[C@@H](CO)C(=O)N[C@@H](Cc1ccc(O)cc1)C(=O)N2` [PaD] (H-SYVGDCGSNGGSCVSSYCPYGNRLNYFCPLGRTCCRRSY-NH2; disulfide 6-34, 13-28, 18-35) the MIC (Acinetobacter baumannii; 2 h, pH 7.4) was 25 µM (≈ 106 µg/mL), the MBC (Acinetobacter baumannii) was 25 µM (≈ 106 µg/mL) and the MIC (Enterococcus faecium; 2 h, pH 7.4) was 25 µM (≈ 106 µg/mL). For the same compound, the MBC (Enterococcus faecium) was 25 µM (≈ 106 µg/mL), the MIC (Escherichia coli; 2 h, pH 7.4) was 12.5 µM (≈ 53.2 µg/mL) and the MBC (Escherichia coli) was 12.5 µM (≈ 53.2 µg/mL). The MIC (Micrococcus luteus; 2 h, pH 7.4) was 12.5 µM (≈ 53.2 µg/mL), the MBC (Micrococcus luteus) was 12.5 µM (≈ 53.2 µg/mL) and the MIC (Pseudomonas aeruginosa; 2 h, pH 7.4) was 25 µM (≈ 106 µg/mL). The MBC (Pseudomonas aeruginosa) was 25 µM (≈ 106 µg/mL), the MIC (Staphylococcus aureus; 2 h, pH 7.4) was 25 µM (≈ 106 µg/mL) and the MBC (Staphylococcus aureus) was 25 µM (≈ 106 µg/mL). For the same compound, the “Hemolysis % (250 µM peptide)” value (horse red blood cells; pH 7.4) was 0.6 ± 0.02%, the IC50 at 4 h (MTT cytotoxicity assay) was 145 ± 1.7 µM and the “Hemolytic effect on human erythrocytes” value (human erythrocytes) was “no hemolytic effect”. For the same compound, the half-life at 250 µM (in vitro) was greater than 24 h.
